In PMC7434922, “Key role of quinone in the mechanism of respiratory complex I” (Nature Communications, 2020):

What was measured:
[1] = target: T1, T. thermophilus complex I (quinone site, Q-site) (Thermus thermophilus, UniProt Q56218+Q56220+Q60019); experiment: X-ray crystal structure; type: binding; conditions: crystal soaked overnight in 500 uM DQ, pH 6.0; Q-site (Y87_4, H38_4)
T1 construct: gene nqo4; native intact complex purified from T. thermophilus HB8 membranes in TDM; 16 subunits, 550 kDa; for crystals recombinant His-tagged Nqo16 (E. coli) was added; activity preparation has sub-stoichiometric Nqo16; with NADH-quinone oxidoreductase subunit 1; NADH-quinone oxidoreductase subunit 2; NADH-quinone oxidoreductase subunit 3; NADH-quinone oxidoreductase subunit 5; NADH-quinone oxidoreductase subunit 7; NADH-quinone oxidoreductase subunit 9; NADH-quinone oxidoreductase subunit 10; NADH-quinone oxidoreductase subunit 11; NADH-quinone oxidoreductase subunit 12; NADH-quinone oxidoreductase subunit 13; NADH-quinone oxidoreductase subunit 14; NADH-quinone oxidoreductase subunit 15; NADH-quinone oxidoreductase subunit 16

[2] = target: T2, T. thermophilus complex I (NADH/FMN site, subunit Nqo1) (Thermus thermophilus, UniProt Q56222); experiment: X-ray crystal structure; type: binding; conditions: resident cofactor in Nqo1; same crystal
T2 construct: same complex as P1, native from HB8 membranes; crystals with added recombinant His-tagged Nqo16; cryo-EM samples without Nqo16 (15 subunits); with NADH-quinone oxidoreductase subunit 2; NADH-quinone oxidoreductase subunit 3; NADH-quinone oxidoreductase subunit 4; NADH-quinone oxidoreductase subunit 5; NADH-quinone oxidoreductase subunit 6; NADH-quinone oxidoreductase subunit 7; NADH-quinone oxidoreductase subunit 8; NADH-quinone oxidoreductase subunit 9; NADH-quinone oxidoreductase subunit 10; NADH-quinone oxidoreductase subunit 11; NADH-quinone oxidoreductase subunit 12; NADH-quinone oxidoreductase subunit 13; NADH-quinone oxidoreductase subunit 14; NADH-quinone oxidoreductase subunit 15; NADH-quinone oxidoreductase subunit 16
T2 sequence (Q56222 1-438): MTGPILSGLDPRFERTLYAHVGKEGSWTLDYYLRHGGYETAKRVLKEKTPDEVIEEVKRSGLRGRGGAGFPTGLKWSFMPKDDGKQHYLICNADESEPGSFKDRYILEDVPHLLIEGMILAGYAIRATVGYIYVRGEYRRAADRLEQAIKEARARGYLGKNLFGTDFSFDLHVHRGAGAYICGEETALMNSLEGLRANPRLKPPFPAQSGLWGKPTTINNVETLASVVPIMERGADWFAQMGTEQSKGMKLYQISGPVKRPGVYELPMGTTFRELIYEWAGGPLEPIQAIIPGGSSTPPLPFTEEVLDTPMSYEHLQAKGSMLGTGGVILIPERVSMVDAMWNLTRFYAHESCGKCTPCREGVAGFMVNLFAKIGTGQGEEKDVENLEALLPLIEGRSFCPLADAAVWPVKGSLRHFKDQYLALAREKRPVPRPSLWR
T2 sequence (Q56221 2-181 partner): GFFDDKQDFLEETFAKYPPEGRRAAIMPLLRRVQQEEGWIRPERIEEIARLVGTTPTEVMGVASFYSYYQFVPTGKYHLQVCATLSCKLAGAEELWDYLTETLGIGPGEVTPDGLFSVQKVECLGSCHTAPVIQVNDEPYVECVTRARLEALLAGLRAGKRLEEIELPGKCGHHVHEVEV
T2 sequence (Q56223 1-783 partner): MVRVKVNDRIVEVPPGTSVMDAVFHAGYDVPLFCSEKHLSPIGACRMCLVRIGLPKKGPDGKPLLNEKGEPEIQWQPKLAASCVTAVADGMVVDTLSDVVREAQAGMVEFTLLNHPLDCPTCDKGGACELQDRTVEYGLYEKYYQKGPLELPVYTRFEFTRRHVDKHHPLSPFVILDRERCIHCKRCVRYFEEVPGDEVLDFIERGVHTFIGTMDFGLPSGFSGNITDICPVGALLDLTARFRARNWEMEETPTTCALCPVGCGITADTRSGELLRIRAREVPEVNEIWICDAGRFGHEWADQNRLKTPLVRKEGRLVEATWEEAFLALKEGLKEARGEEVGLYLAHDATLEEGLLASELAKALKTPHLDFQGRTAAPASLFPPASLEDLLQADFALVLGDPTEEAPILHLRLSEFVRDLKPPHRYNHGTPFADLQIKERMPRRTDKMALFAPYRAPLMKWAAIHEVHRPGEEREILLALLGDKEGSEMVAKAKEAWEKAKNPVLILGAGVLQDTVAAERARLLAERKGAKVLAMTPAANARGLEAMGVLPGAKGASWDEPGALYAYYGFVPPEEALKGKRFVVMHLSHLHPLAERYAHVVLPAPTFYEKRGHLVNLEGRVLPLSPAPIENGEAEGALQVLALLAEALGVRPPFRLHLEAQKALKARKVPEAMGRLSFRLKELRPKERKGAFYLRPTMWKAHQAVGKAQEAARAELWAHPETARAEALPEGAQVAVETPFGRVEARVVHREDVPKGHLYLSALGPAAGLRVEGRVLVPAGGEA

[3] = target: T2, T. thermophilus complex I (NADH/FMN site, subunit Nqo1); experiment: X-ray crystal structure; also cryo-EM (6ZIY); type: binding; conditions: crystal soaked 4.5 min in 20 mM NADH, 20 mM dithionite, anaerobic, pH 6.0
[4] = target: T3, Complex I subunit Nqo10 (Thermus thermophilus) (T. thermophilus HB8, UniProt Q56225 1-176); experiment: crystal structure; intact complex I purified from T. thermophilus mixed with purified recombinant Nqo16 (1:0.2 CXI:Nqo16), sitting drop at 23 °C, 100 mM Bis-Tris pH 6.0, 19-25% PEG 4000, 100 mM KCl, 100 mM glutaric acid, detergents; native crystals and crystals soaked or co-crystallised with NADH, decylubiquinone, piericidin A, aureothin or pyridaben; conditions: both partners purified
T3 construct: Nqo10, core subunit of the membrane domain of respiratory complex I, Thermus thermophilus HB8; Endogenous subunit inside the crystallised intact complex; source: purified from T. thermophilus HB8 cells as part of intact complex I (anion exchange, cation exchange, gel filtration)
T3 sequence (looked up): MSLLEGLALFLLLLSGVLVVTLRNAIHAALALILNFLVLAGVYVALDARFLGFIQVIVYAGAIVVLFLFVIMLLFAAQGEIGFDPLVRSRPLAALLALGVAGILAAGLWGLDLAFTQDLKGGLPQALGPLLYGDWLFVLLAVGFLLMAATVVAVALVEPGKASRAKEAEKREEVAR

[5] = target: T4, Complex I antiporter-like subunit Nqo14 (Thermus thermophilus) (T. thermophilus HB8, UniProt Q56229 1-427); experiment: as above; conditions: both partners purified
T4 construct: Nqo14, antiporter-like core subunit of the membrane domain of respiratory complex I, Thermus thermophilus HB8; Endogenous subunit inside the crystallised intact complex; source: purified from T. thermophilus HB8 cells as part of intact complex I (anion exchange, cation exchange, gel filtration)
T4 sequence (looked up): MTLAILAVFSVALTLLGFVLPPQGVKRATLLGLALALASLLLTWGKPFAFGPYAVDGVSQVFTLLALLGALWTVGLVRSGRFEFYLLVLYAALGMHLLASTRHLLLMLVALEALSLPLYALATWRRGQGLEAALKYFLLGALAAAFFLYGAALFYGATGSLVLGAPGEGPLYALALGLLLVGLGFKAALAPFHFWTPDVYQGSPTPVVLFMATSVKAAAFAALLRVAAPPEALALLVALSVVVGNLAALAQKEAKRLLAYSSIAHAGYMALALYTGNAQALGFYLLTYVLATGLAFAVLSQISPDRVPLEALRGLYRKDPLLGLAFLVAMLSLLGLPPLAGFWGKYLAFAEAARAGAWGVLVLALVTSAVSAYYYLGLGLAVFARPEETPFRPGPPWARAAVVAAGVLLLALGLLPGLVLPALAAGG

For `CCCCCCCCCCC1=C(C)C(=O)C(OC)=C(OC)C1=O` [DQ, decylubiquinone], the X-ray crystal structure [1] was “DQ interacts mainly with the residues mentioned above with its hydrocarbon chain surrounded by”.

For `Cc1cc2nc3c(=O)[nH]c(=O)nc-3n(C[C@H](O)[C@H](O)[C@H](O)COP(=O)(O)O)c2cc1C` [FMN, flavin-mononucleotide], the X-ray crystal structure [2] was “The FMN is coordinated by subunit Nqo1 at the deep end”.

With `NC(=O)C1=CN([C@@H]2O[C@H](COP(=O)(O)OP(=O)(O)OC[C@H]3O[C@@H](n4cnc5c(N)ncnc54)[C@H](O)[C@@H]3O)[C@@H](O)[C@H]2O)C=CC1` [NADH] the “X-ray crystal structure; also cryo-EM (6ZIY)” value [3] was “Our crystal structure of intact complex I with bound NADH confirms the binding mode”.

B1: Complex I subunit Nqo11 (Thermus thermophilus) (natural protein, T. thermophilus HB8, UniProt Q56226 1-95, looked up)
chain: MSYLLTSALLFALGVYGVLTRRTAILVFLSIELMLNAANLSLVGFARAYGLDGQVAALMVIAVAAAEVAVGLGLIVAIFRHRESTAVDDLSELRG
notes: Nqo11, core subunit of the membrane domain of respiratory complex I, Thermus thermophilus HB8; Endogenous subunit inside the crystallised intact complex; source: purified from T. thermophilus HB8 cells as part of intact complex I (anion exchange, cation exchange, gel filtration)
B1: binds [4]; binds [5].
